4 molecules from ChEMBL document CHEMBL1134087, “Inhibitors of the bacterial cell wall biosynthesis enzyme MurC” (Bioorg Med Chem Lett, 2001) can be followed below.

As a reminder, the IC50 is the concentration that inhibits the measured activity by half.

A short description of assay [1]: Tested for inhibitory activity against UDP-N-acetylmuramoyl-L-alanine synthetase from Escherichia coli by malachite green assay.
The nature of assay [2]: Tested for inhibitory activity against UDP-N-acetylmuramoyl-L-alanine synthetase from Escherichia coli by malachite green assay; Inactive.

The molecule `CC(=O)N[C@H]1[C@@H](OP(=O)(O)O)O[C@H](CO)[C@@H](O)[C@@H]1OCP(=O)(O)CC(C)C(=O)O` (some centres undefined) yielded an IC50 in assay [1] above 100 µM.
On the same count and under the same terms, in the case of `CC(CP(=O)(O)COCCCOP(=O)(O)OP(=O)(O)OC[C@H]1O[C@@H](n2ccc(=O)[nH]c2=O)[C@H](O)[C@@H]1O)C(=O)O` (some centres undefined) it was 60 µM; in that of `CC(=O)N[C@H]1C(OP(=O)(O)OP(=O)(O)OC[C@H]2O[C@@H](n3ccc(=O)[nH]c3=O)[C@H](O)[C@@H]2O)O[C@H](CO)[C@@H](O)[C@@H]1OCP(=O)(O)CC(C)C(=O)O` (some centres undefined), 0.049 µM.
Regarding `CC(CP(=O)(O)COCCCOP(=O)(O)O)C(=O)O` (centres undefined), in assay [2], the IC50 entry was “Not Active”.
